# Where a SMILES comes first, the peptide text is derived from it.
# Key:
# [1] = Peptide hydrogel formation, vial-inverting method; format: physicochemical; parameters: key to EXP / GELATION: 0: no hydrogel; 1: hydrogel; settings: for State: ultrasonication, standing 48 h; for State / GELATION: vial-inverting method; for Concentration: concentration at which the state was recorded: lowest of 30, 60, 90, 120 mM that gave a gel, 120 mM for non-gelating peptides; for GELATION: 1 = hydrogel, 0 = no hydrogel
# Outline: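 Gelation judged by vial inversion, a non-flowing self-supporting sample counting as hydrogel, after 48 h standing. Peptide in water at 30 mM first, escalating to 60, 90 and 120 mM if no gel; pH set to 6.5–8.5 by stepwise 1 N NaOH, each step sonicated briefly.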
# [2] = Transmission electron microscope (negative staining) of peptide assemblies; settings: for Morphology: TEM, negative staining with uranyl acetate, 120 kV; for morphology by TEM (in words): aqueous solution or hydrogel, negative staining
# Procedure: We used the negative staining technique to observe the morphologies formed by peptides. A micropipette was used to load 10 μL of sample solution to a carbon-coated copper grid, and we used a piece of filter paper to remove the excess solution. After rinsing the grid with the deionized water, we used uranyl acetate to stain the sample for 1 minute and then rinsed the grid with deionized water again.
# [3] = 90 mM peptide in ultrapure water, pH 6.5-8.5 (1 N NaOH), no gel at lower concentrations
# [4] = 120 mM peptide (highest tested) in ultrapure water, pH 6.5-8.5 (1 N NaOH), precipitate, sol, suspension = no gel
# [5] = 30 mM peptide in ultrapure water, pH adjusted to 6.5-8.5 with 1 N NaOH, concentration raised 30/60/90/120 mM until gelation
# [6] = 60 mM peptide in ultrapure water, pH 6.5-8.5 (1 N NaOH), no gel at 30 mM
smiles,measurement,setting,value
CSCC[C@H](NC(=O)[C@@H](N)CCSC)C(=O)N[C@@H](CC(C)C)C(=O)N[C@@H](CC(C)C)C(=O)O [MMLL] (H-MMLL-OH),State,[1]; [3],gel
same,Concentration,[1],90 mM
same,GELATION,[1]; peptide concentration 90 mM,1
same,Morphology,[2]; line of the table gives 90 mM,sheet
CSCC[C@H](NC(=O)[C@H](CCSC)NC(=O)[C@H](CCSC)NC(=O)[C@@H](N)CCSC)C(=O)O [MMMM] (H-MMMM-OH),State,[1]; [4],gel
same,Concentration,[1],120 mM
same,GELATION,[1]; peptide concentration 120 mM,1
same,Morphology,[2]; line of the table gives 120 mM,hybrid(sphere+fibre)
CSCC[C@H](NC(=O)[C@@H](N)CCSC)C(=O)N[C@H](C(=O)N[C@H](C(=O)O)C(C)C)C(C)C [MMVV] (H-MMVV-OH),State,[1]; [5],gel
same,Concentration,[1],30 mM
same,GELATION,[1]; peptide concentration 30 mM,1
same,Morphology,[2]; line of the table gives 30 mM,particle
CSCC[C@H](NC(=O)[C@@H](N)CCSC)C(=O)N[C@@H](Cc1ccc(O)cc1)C(=O)N[C@@H](Cc1ccc(O)cc1)C(=O)O [MMYY] (H-MMYY-OH),State,[1]; [4],suspension
same,Concentration,[1],120 mM
same,GELATION,[1]; peptide concentration 120 mM,0
same,Morphology,[2]; line of the table gives 120 mM,particle
CSCC[C@H](N)C(=O)N[C@H](C(=O)N[C@@H](Cc1ccccc1)C(=O)N1CCC[C@H]1C(=O)O)C(C)C [MVFP] (H-MVFP-OH),State,[1]; [6],gel
same,Concentration,[1],60 mM
same,GELATION,[1]; peptide concentration 60 mM,1
same,Morphology,[2]; line of the table gives 60 mM,fibre
CSCC[C@H](N)C(=O)N[C@H](C(=O)N[C@@H](CCC(N)=O)C(=O)NCC(=O)O)C(C)C [MVQG] (H-MVQG-OH),State,[1]; [4],suspension
same,Concentration,[1],120 mM
same,GELATION,[1]; peptide concentration 120 mM,0
same,Morphology,[2]; line of the table gives 120 mM,aggregates
NC(=O)C[C@H](NC(=O)[C@H](CC(N)=O)NC(=O)[C@H](CC(N)=O)NC(=O)[C@@H](N)CC(N)=O)C(=O)O [NNNN] (H-NNNN-OH),State,[1]; [4],sol
same,Concentration,[1],120 mM
same,GELATION,[1]; peptide concentration 120 mM,0
same,Morphology,[2]; line of the table gives 120 mM,aggregates
CC[C@H](C)[C@H](NC(=O)[C@@H](NC(=O)[C@@H](N)CC(N)=O)[C@@H](C)O)C(=O)N[C@@H](Cc1ccccc1)C(=O)O [NTIF] (H-NTIF-OH),State,[1]; [6],gel
same,Concentration,[1],60 mM
same,GELATION,[1]; peptide concentration 60 mM,1
same,Morphology,[2]; line of the table gives 60 mM,fibre
CC(C)[C@H](NC(=O)[C@@H](N)CC(N)=O)C(=O)N[C@@H](Cc1ccccc1)C(=O)N[C@@H](Cc1c[nH]cn1)C(=O)O [NVFH] (H-NVFH-OH),State,[1]; [4],suspension
same,Concentration,[1],120 mM
same,GELATION,[1]; peptide concentration 120 mM,0
same,Morphology,[2]; line of the table gives 120 mM,aggregates
NC(=O)C[C@H](N)C(=O)N[C@@H](Cc1c[nH]c2ccccc12)C(=O)N[C@@H](Cc1c[nH]c2ccccc12)C(=O)N[C@@H](Cc1ccccc1)C(=O)O [NWWF] (H-NWWF-OH),State,[1]; [5],gel
same,Concentration,[1],30 mM
same,GELATION,[1]; peptide concentration 30 mM,1
same,Morphology,[2]; line of the table gives 30 mM,sphere
O=C(CNC(=O)[C@@H]1CCCN1)N[C@@H](Cc1c[nH]c2ccccc12)C(=O)N[C@@H](Cc1c[nH]c2ccccc12)C(=O)O [PGWW] (H-PGWW-OH),State,[1]; [4],sol
same,Concentration,[1],120 mM
same,GELATION,[1]; peptide concentration 120 mM,0
same,Morphology,[2]; line of the table gives 120 mM,aggregates
same,morphology by TEM (in words),[2],aggregates with different sizes
CC[C@H](C)[C@H](NC(=O)[C@@H]1CCCN1)C(=O)N[C@@H](Cc1ccccc1)C(=O)N[C@@H](Cc1ccc(O)cc1)C(=O)O [PIFY] (H-PIFY-OH),State,[1]; [5],gel
same,Concentration,[1],30 mM
same,GELATION,[1]; peptide concentration 30 mM,1
same,Morphology,[2]; line of the table gives 30 mM,sphere
CSCC[C@H](NC(=O)[C@@H]1CCCN1)C(=O)N[C@@H](Cc1ccccc1)C(=O)N[C@@H](Cc1ccc(O)cc1)C(=O)O [PMFY] (H-PMFY-OH),State,[1]; [6],gel
same,Concentration,[1],60 mM
same,GELATION,[1]; peptide concentration 60 mM,1
same,Morphology,[2]; line of the table gives 60 mM,sheet
O=C(O)[C@@H]1CCCN1C(=O)[C@@H]1CCCN1C(=O)[C@@H]1CCCN1C(=O)[C@@H]1CCCN1 [PPPP] (H-PPPP-OH),State,[1]; [4],suspension
same,Concentration,[1],120 mM
same,GELATION,[1]; peptide concentration 120 mM,0
same,Morphology,[2]; line of the table gives 120 mM,particle
CC(C)[C@H](NC(=O)[C@@H]1CCCN1)C(=O)N[C@@H](Cc1ccccc1)C(=O)N[C@@H](Cc1c[nH]c2ccccc12)C(=O)O [PVFW] (H-PVFW-OH),State,[1]; [6],gel
same,Concentration,[1],60 mM
same,GELATION,[1]; peptide concentration 60 mM,1
same,Morphology,[2]; line of the table gives 60 mM,hybrid(needle+fibre)
CC(C)[C@H](NC(=O)[C@@H]1CCCN1)C(=O)N[C@@H](Cc1ccccc1)C(=O)N[C@@H](Cc1ccc(O)cc1)C(=O)O [PVFY] (H-PVFY-OH),State,[1]; [5],gel
same,Concentration,[1],30 mM
same,GELATION,[1]; peptide concentration 30 mM,1
same,Morphology,[2]; line of the table gives 30 mM,needle
CC[C@H](C)[C@H](NC(=O)[C@@H](NC(=O)[C@@H](NC(=O)[C@@H]1CCCN1)C(C)C)[C@@H](C)CC)C(=O)O [PVII] (H-PVII-OH),State,[1]; [3],gel
same,Concentration,[1],90 mM
same,GELATION,[1]; peptide concentration 90 mM,1
same,Morphology,[2]; line of the table gives 90 mM,fibre
O=C(O)[C@H](CS)NC(=O)[C@H](Cc1c[nH]c2ccccc12)NC(=O)[C@H](Cc1c[nH]c2ccccc12)NC(=O)[C@@H]1CCCN1 [PWWC] (H-PWWC-OH),State,[1]; [4],suspension
same,Concentration,[1],120 mM
same,GELATION,[1]; peptide concentration 120 mM,0
same,Morphology,[2]; line of the table gives 120 mM,aggregates
O=C(O)[C@H](Cc1ccc(O)cc1)NC(=O)[C@H](Cc1c[nH]c2ccccc12)NC(=O)[C@H](Cc1c[nH]c2ccccc12)NC(=O)[C@@H]1CCCN1 [PWWY] (H-PWWY-OH),State,[1]; [4],sol
same,Concentration,[1],120 mM
same,GELATION,[1]; peptide concentration 120 mM,0
same,Morphology,[2]; line of the table gives 120 mM,aggregates
O=C(O)[C@H](Cc1c[nH]c2ccccc12)NC(=O)[C@H](Cc1ccc(O)cc1)NC(=O)[C@H](Cc1c[nH]c2ccccc12)NC(=O)[C@@H]1CCCN1 [PWYW] (H-PWYW-OH),State,[1]; [4],gel
same,Concentration,[1],120 mM
same,GELATION,[1]; peptide concentration 120 mM,1
same,Morphology,[2]; line of the table gives 120 mM,aggregates
O=C(O)[C@H](Cc1ccc(O)cc1)NC(=O)[C@H](Cc1ccc(O)cc1)NC(=O)[C@H](Cc1c[nH]c2ccccc12)NC(=O)[C@@H]1CCCN1 [PWYY] (H-PWYY-OH),State,[1]; [6],gel
same,Concentration,[1],60 mM
same,GELATION,[1]; peptide concentration 60 mM,1
same,Morphology,[2]; line of the table gives 60 mM,aggregates
CC[C@H](C)[C@H](NC(=O)[C@H](Cc1ccc(O)cc1)NC(=O)[C@H](Cc1ccc(O)cc1)NC(=O)[C@@H]1CCCN1)C(=O)O [PYYI] (H-PYYI-OH),State,[1]; [4],sol
same,Concentration,[1],120 mM
same,GELATION,[1]; peptide concentration 120 mM,0
same,Morphology,[2]; line of the table gives 120 mM,aggregates
CC[C@H](C)[C@H](NC(=O)[C@@H](NC(=O)[C@H](Cc1c[nH]cn1)NC(=O)[C@@H](N)CCC(N)=O)[C@@H](C)CC)C(=O)O [QHII] (H-QHII-OH),State,[1]; [4],sol
same,Concentration,[1],120 mM
same,GELATION,[1]; peptide concentration 120 mM,0
same,Morphology,[2]; line of the table gives 120 mM,aggregates
CSCC[C@H](NC(=O)[C@@H](N)CCC(N)=O)C(=O)N[C@H](C(=O)N[C@H](C(=O)O)C(C)C)C(C)C [QMVV] (H-QMVV-OH),State,[1]; [4],gel
same,Concentration,[1],120 mM
same,GELATION,[1]; peptide concentration 120 mM,1
same,Morphology,[2]; line of the table gives 120 mM,aggregates
N=C(N)NCCC[C@H](NC(=O)[C@H](CCCNC(=N)N)NC(=O)[C@H](CCCNC(=N)N)NC(=O)[C@@H](N)CCCNC(=N)N)C(=O)O [RRRR] (H-RRRR-OH),State,[1]; [4],sol
same,Concentration,[1],120 mM
same,GELATION,[1]; peptide concentration 120 mM,0
same,Morphology,[2]; line of the table gives 120 mM,aggregates
same,morphology by TEM (in words),[2],aggregates with different sizes
CC(C)[C@H](NC(=O)[C@H](Cc1c[nH]c2ccccc12)NC(=O)[C@@H](N)CCCNC(=N)N)C(=O)N[C@@H](Cc1ccccc1)C(=O)O [RWVF] (H-RWVF-OH),State,[1]; [4],sol
same,Concentration,[1],120 mM
same,GELATION,[1]; peptide concentration 120 mM,0
same,Morphology,[2]; line of the table gives 120 mM,aggregates
same,morphology by TEM (in words),[2],aggregates with different sizes
C[C@H](NC(=O)[C@@H](N)CO)C(=O)N[C@@H](Cc1c[nH]c2ccccc12)C(=O)N[C@@H](Cc1ccccc1)C(=O)O [SAWF] (H-SAWF-OH),State,[1]; [6],gel
same,Concentration,[1],60 mM
same,GELATION,[1]; peptide concentration 60 mM,1
same,Morphology,[2]; line of the table gives 60 mM,fibre
CC(C)C[C@H](NC(=O)[C@@H](N)CO)C(=O)N[C@H](C(=O)N[C@H](C(=O)O)C(C)C)C(C)C [SLVV] (H-SLVV-OH),State,[1]; [6],gel
same,Concentration,[1],60 mM
same,GELATION,[1]; peptide concentration 60 mM,1
same,Morphology,[2]; line of the table gives 60 mM,fibre
N[C@@H](CO)C(=O)N[C@@H](CO)C(=O)N[C@@H](Cc1ccccc1)C(=O)N[C@@H](Cc1ccccc1)C(=O)O [SSFF] (H-SSFF-OH),State,[1]; [5],gel
same,Concentration,[1],30 mM
same,GELATION,[1]; peptide concentration 30 mM,1
same,Morphology,[2]; line of the table gives 30 mM,fibre
N[C@@H](CO)C(=O)N[C@@H](CO)C(=O)N[C@@H](CO)C(=O)N[C@@H](CO)C(=O)O [SSSS] (H-SSSS-OH),State,[1]; [4],suspension
same,Concentration,[1],120 mM
same,GELATION,[1]; peptide concentration 120 mM,0
same,Morphology,[2]; line of the table gives 120 mM,blank
C[C@@H](O)[C@H](NC(=O)[C@@H](N)CO)C(=O)N[C@@H](Cc1ccc(O)cc1)C(=O)N[C@@H](Cc1ccccc1)C(=O)O [STYF] (H-STYF-OH),State,[1]; [6],gel
same,Concentration,[1],60 mM
same,GELATION,[1]; peptide concentration 60 mM,1
same,Morphology,[2]; line of the table gives 60 mM,hybrid(sphere+fibre)

# — PMC10313671, “Accelerating the prediction and discovery of peptide hydrogels with human-in-the-loop” (Nature Communications, 2023)
